From the CATMoS acute toxicity set (Mansouri et al. 2021)

Experiment: GHS categories as the set defines them, by LD50: 1 up to 5, 2 up to 50, 3 up to 300, 4 up to 2000, 5 above 2000 mg/kg
Conditions: rat; in vivo; po

| Compound | GHS category |
| --- | --- |
| CCOCCC(C)CCC=C(C)C (stereo not given) | 5 |
| COc1ccc(C2(c3ccc(OC)c(Cl)c3)NC(=O)NC2=O)cc1 (stereo not given) | 5 |
| OC1C(Cl)(Cl)C(=C(Cl)Cl)C2(OC2Cl)C1(Cl)Cl (stereo not given) | 4 |
| C=C(C)COCC/C=C\CC | 5 |
| Cc1cc(OC(=O)c2cc(Cl)ccc2OC(N)=O)ccc1Cl | 5 |
| O=C=Nc1cccc2ccccc12 | 5 |
| NC(=O)c1cc[n+](CC2=C(C(=O)O)N3C(=O)[C@@H](NC(=O)[C@H](c4ccccc4)S(=O)(=O)[O-])[C@@H]3SC2)cc1 | 5 |
| CCOc1ccc(C(=O)NCc2ccc(OCCNC)cc2)cc1OCC | 5 |
| CCCOC(=O)[C@H](C)O | 5 |
| C[C@@H]1C[C@@H](O)CC(C)(C)C1=O | 5 |
| NP(N)(=O)Oc1ccccc1 | 4 |
| CC(=O)OCC1=C(C(=O)O)N2C(=O)C(NC(=O)Cc3cccs3)C2SC1 (stereo not given) | 5 |
| CSC(C)(C)SC | 5 |
| C[C@]12CCC(=O)C=C1C=C[C@@H]1[C@@H]2CC[C@@]2(C)[C@H]1CC[C@@]21CCC(=O)O1 | 5 |
| Cn1nnnc1SCCCC(=O)c1cccs1 | 4 |
| O=C(O)CCCCCCCCCCCCCCCCC(=O)O | 5 |
| CCCCCCCCCCCCCCCCCCCCCC(=O)O | 5 |
| c1ccc(Cn2ccnc2-c2nn[nH]n2)cc1 | 5 |
| CN(C)CC(=O)O | 4 |
| CCCCCCCCCCCCOC(=O)CCSCCC(=O)OCCCCCCCCCCCC | 5 |
| CSC(C)=NOC(=O)N(C)SN(C(C)(C)C)P1(=S)OCC(C)(C)CO1 | 5 |
| Cc1cc(CCC(=O)OCCOCCOCCOC(=O)CCc2cc(C)c(O)c(C(C)(C)C)c2)cc(C(C)(C)C)c1O | 5 |
| C=C1CC[C@H]2O[C@]2(C)CC[C@@H]2[C@@H]1CC2(C)C | 5 |

| Compound | GHS category |
| --- | --- |
| Cc1ccc(C2OC[C@@H]3OC(c4ccc(C)c(C)c4)O[C@H]([C@H](O)CO)[C@@H]3O2)cc1C (stereo not given in full) | 5 |
| Cc1ccc(OP(=O)(Oc2ccccc2)Oc2ccccc2)cc1 | 5 |
| CCOC(=O)c1ccc(NC(=O)CC)cc1NC(=O)c1ccc(C(=O)O)cc1 | 5 |
| CC(CO)CCCC1CCCCC1 (stereo not given) | 5 |
| CCCCC(CC)COCC(O)COc1ccc(-c2nc(-c3ccc(C)cc3C)nc(-c3ccc(C)cc3C)n2)c(O)c1 (stereo not given) | 5 |
| NC1=NC(=O)CC(=O)N1 | 5 |
| O=C1CCc2c(cccc2OCCCN2CCC(O)(c3ccccc3)CC2)N1 | 4 |
| CC(=O)NCCCOc1ccc(C(=O)N2CCC(N3C(=O)CCc4ccccc43)CC2)cc1 | 5 |
| OC[C@H]1O[C@@H](n2cnc3c(O)ncnc32)[C@H](O)[C@@H]1O | 5 |
| CN1CC(c2ccno2)CC2c3cccc4[nH]cc(c34)CC21 (stereo not given) | 4 |
| O=C(O)C(=O)C(O)C(O)C(O)CO (stereo not given) | 5 |
| C/C(=C(\CCOC(=O)C(C)C)SS/C(CCOC(=O)C(C)C)=C(/C)N(C=O)Cc1cnc(C)nc1N)N(C=O)Cc1cnc(C)nc1N | 5 |
| COCC(=O)N(c1c(C)cccc1C)[C@H](C)C(=O)OC | 4 |
| CC(C)(C)OOC(C)(C)CCC(C)(C)OOC(C)(C)C | 5 |
| Cn1c(=O)n(-c2ccccc2)c2cc(Cl)ccc21 | 4 |
| CCCCCCCCCCCCCCCC(=O)OCC(CC)CCCC (stereo not given) | 5 |
| CN/C(=N\[N+](=O)[O-])NCc1cnc(Cl)s1 | 5 |
| CCn1cc(C(=O)O)c(=O)c2cnc(N3CCCC3)nc21 | 5 |
| CC(=CC1C(C)=CCCC1(C)C)C(C)O (stereo not given) | 5 |
| O=C(O)C(c1ccccc1Cl)N1CCc2sccc2C1 (stereo not given) | 5 |
| CC[N+](CC)(CC)CCOc1cccc(OCC[N+](CC)(CC)CC)c1OCC[N+](CC)(CC)CC | 4 |
| COc1ccc2c(c1)CCN(c1ccccc1)C2c1ccccc1Br (stereo not given) | 4 |
| COc1ccc2c(c1)CCN(c1ccccc1)C2c1ccccc1Cl (stereo not given) | 4 |

| Compound | GHS category |
| --- | --- |
| CN(C)CCCOc1nn(-c2cccc(C(F)(F)F)c2)c2ncccc12 | 4 |
| COC(F)(F)C(C(F)(F)F)C(F)(F)F | 3 |
| CC(CC=O)CCCC(C)(C)O (stereo not given) | 5 |
| CC(=O)O[C@@H]1C(=O)O[C@@H]2[C@H]1OC(=O)[C@@H]2OC(C)=O | 5 |
| O=C1NC(=O)C(c2ccc(O)cc2)(c2cccs2)N1 (stereo not given) | 5 |
| CCOC(=O)COc1nn(-c2cccc(C(F)(F)F)c2)c2ncccc12 | 4 |
| OCC(O)C1OC(c2ccco2)OC(CO)C1O (stereo not given) | 5 |
| CCC=CCC=CCC=CCC=CCC=CCCCCCC(=O)O | 5 |
| COC(=O)c1cc(Oc2ccc(C(=O)OC)cc2N)cc(C(=O)OC)c1 | 5 |
| Nc1ccc(C(=O)c2ccc(Cl)cc2)cc1O | 5 |
| O=C(O)COc1ccc(Cl)cc1CO | 5 |
| C=CC(C)(CCC=C(C)C)OC (stereo not given) | 5 |
| O=S(=O)(CCO)CS(=O)(=O)CCO | 5 |
| NCCCC(N)(C(=O)O)C(F)F (stereo not given) | 5 |
| CC(C)CCCCCCCCCCOCCCN | 4 |
| CCN(CCOC(C)OCC(C)C)c1ccc(N=Nc2ccccc2)cc1 (stereo not given) | 4 |
| CC(Oc1cccc(Cl)c1)C(=O)O (stereo not given) | 4 |
| CC(=O)Oc1ccccc1C(=O)Oc1cccc(CO[N+](=O)[O-])c1 | 5 |
| O=C(O)CCn1nc2ccccn2c1=O | 5 |
| CCC(COC(=O)c1cc(OC)c(OC)c(OC)c1)(c1ccccc1)N(C)C (stereo not given) | 5 |
| CCCc1c(Cc2ccc(-c3ccccc3-c3nn[nH]n3)cc2)c(=O)nc2[nH][nH]c(=O)n12 | 4 |
| C=CC(C)(CCC=C(C)C)OC=O (stereo not given) | 5 |
| CN(C)CCOC(=O)C(c1ccccc1)C1(O)CCCC1 (stereo not given) | 5 |

| Compound | GHS category |
| --- | --- |
| CCC(=O)C=Cc1ccc(OC)cc1 | 5 |
| C[C@H]1CO[C@@](Cn2cncn2)(c2cc3ccccc3o2)O1 | 4 |
| COc1ccc(C=C(C(=O)Nc2ccccc2C(=O)O)C(=O)Nc2ccccc2C(=O)O)cc1OC | 5 |
| CCCCCCCSCCCCN1CCCCCC1=O | 5 |
| CC(O)C(O)C(=O)C(O)C(O)Oc1cccc2c1C(=O)c1c(O)cc(C(=O)O)cc1C2C1c2cc(C(=O)O)cc(O)c2C(=O)c2c(OC(O)C(O)C(=O)C(O)C(C)O)cccc21 (stereo not given) | 5 |
| CN1C(=O)C(C)(C)Oc2cc(C(=O)c3ccc(Cl)cc3)ccc21 | 5 |
| CC(=O)c1ccc2c(c1)OCC(=O)N2C | 5 |
| Nc1ccc(N=Nc2ccc(N=Nc3c(S(=O)(=O)O)cc4cc(S(=O)(=O)O)c(N=Nc5ccc(N=Nc6ccc(N)cc6N)cc5)c(O)c4c3N)cc2)c(N)c1 | 5 |
| Cc1ccc(NC(=O)c2cc(C)[nH]n2)cc1 | 5 |
| CC(CCc1ccccc1)NC(C)C(O)c1ccc(O)cc1 (stereo not given) | 5 |
| NS(=O)(=O)c1cc2c(cc1Cl)NC(Cc1ccccc1)NS2(=O)=O (stereo not given) | 5 |
| CO[C@@]1(NC(=O)Cc2cccs2)C(=O)N2C(C(=O)O)=C(COC(N)=O)CS[C@@H]21 | 5 |
| CCCCOC(=O)c1ccc(-n2nc(OCCN(C)C)c3ccccc32)cc1 | 4 |
| COCCOCCOC(=O)C(=O)Nc1nc(-c2ccccc2)cs1 | 5 |
| O=C1CCc2ccc(OCC(O)CN3CCC(c4ccccc4)CC3)cc2N1 (stereo not given) | 4 |
| COC(=O)C(CCn1cnc2c(Cl)nc(N)nc21)C(=O)OC | 5 |
| CCN(C(=O)Oc1cccc(NC(=O)OC(C)C)c1)c1ccccc1 | 5 |
| CCCc1c(Cc2ccc(-c3ccccc3-c3nn[nH]n3)cc2)c(=O)nc2nc(SC)[nH]n12 | 4 |
| CCOC(=O)C1=C(C)NC(C[P+](c2ccccc2)(c2ccccc2)c2ccccc2)=C(C(=O)OCC)C1c1cccc([N+](=O)[O-])c1 (stereo not given) | 4 |
| COc1ccccc1C1C(Cl)C(=O)N1NC(=O)c1ccccc1O (stereo not given) | 5 |
| Nc1nc2c(s1)CC(N)CC2 (stereo not given) | 4 |
| CCOC(=O)C(C)OC(=O)c1cc(Oc2ccc(C(F)(F)F)cc2Cl)ccc1[N+](=O)[O-] (stereo not given) | 5 |
| CC(C)CC(C)c1ccccc1N (stereo not given) | 5 |

| Compound | GHS category |
| --- | --- |
| COc1ccc2[nH]cc(CCNC(C)=O)c2c1 | 5 |
| CC(C)(c1cc(Br)c(OCC(Br)CBr)c(Br)c1)c1cc(Br)c(OCC(Br)CBr)c(Br)c1 (stereo not given) | 5 |
| COc1ccc(C=CC(C)=O)cc1 | 5 |
| CC(C)(C)N(Sc1nc2ccccc2s1)Sc1nc2ccccc2s1 | 5 |
| CCCCCCCCCCCCCCCCBr | 5 |
| Cc1cccc(OC(=O)c2ccc(Cl)cc2OC(N)=O)c1 | 5 |
| Fc1ccccc1C1=NCC(=S)N(CC(F)(F)F)c2ccc(Cl)cc21 | 5 |
| CCN(C(=O)Cl)C1CCCCC1 | 4 |
| COC(=O)c1ccc(C(=O)Nc2cc(Cl)ccc2Cl)cc1N | 4 |
| OC(Cn1ccnc1)c1ccc(CCc2ccccc2)cc1 (stereo not given) | 5 |
| Nc1c(/N=N/c2ccc(S(=O)(=O)CCOS(=O)(=O)O)cc2)c(S(=O)(=O)O)cc2cc(S(=O)(=O)O)c(/N=N/c3ccc(S(=O)(=O)CCOS(=O)(=O)O)cc3)c(O)c12 | 5 |
| C[C@]12CC[C@H]3[C@@H](CC[C@@]45O[C@@H]4C(O)=C(C#N)C[C@]35C)[C@@H]1CC[C@@H]2O | 5 |
| CCN(CC)C(=O)CCSCc1nnnn1C | 4 |
| CC1Oc2cc(C(=O)c3cccs3)ccc2N(C)C1=O (stereo not given) | 5 |
| CCC(=O)OC1CC(=O)OC(C)CC=CC=CC(OC(C)=O)C(C)CC(CC=O)C(OC2OC(C)C(OC3CC(C)(OC(C)=O)C(OC(=O)CC)C(C)O3)C(N(C)C)C2O)C1OC (stereo not given) | 5 |
| CC(C)(C)C1CCC(C2=C(O)c3ccccc3C(=O)C2=O)CC1 (stereo not given) | 5 |
| C=CC(=O)NCCO | 5 |
| CCCCCCOc1ccc(-c2nc(-c3ccccc3)nc(-c3ccccc3)n2)c(O)c1 | 5 |
| Cc1c(OCC(F)(F)F)ccnc1CS(=O)c1nc2ccccc2[nH]1 (stereo not given) | 5 |
| CCOC(=O)CC1(C)OCCO1 | 5 |
| CCCCCCCCCCCCCOC(=O)c1ccccc1C(=O)OCCCCCCCCCCCCC | 5 |
| Cc1[nH]n(-c2ccccc2)c(=O)c1N=Nc1ccc(-c2ccc(N=Nc3c(C)[nH]n(-c4ccccc4)c3=O)c(Cl)c2)cc1Cl | 5 |
| CCCCCNCC(N)=O | 5 |
